Assay [1] addresses T1, SHP2 protein (Homo sapiens, UniProt Q06124).
T1 sequence (Q06124 1-593): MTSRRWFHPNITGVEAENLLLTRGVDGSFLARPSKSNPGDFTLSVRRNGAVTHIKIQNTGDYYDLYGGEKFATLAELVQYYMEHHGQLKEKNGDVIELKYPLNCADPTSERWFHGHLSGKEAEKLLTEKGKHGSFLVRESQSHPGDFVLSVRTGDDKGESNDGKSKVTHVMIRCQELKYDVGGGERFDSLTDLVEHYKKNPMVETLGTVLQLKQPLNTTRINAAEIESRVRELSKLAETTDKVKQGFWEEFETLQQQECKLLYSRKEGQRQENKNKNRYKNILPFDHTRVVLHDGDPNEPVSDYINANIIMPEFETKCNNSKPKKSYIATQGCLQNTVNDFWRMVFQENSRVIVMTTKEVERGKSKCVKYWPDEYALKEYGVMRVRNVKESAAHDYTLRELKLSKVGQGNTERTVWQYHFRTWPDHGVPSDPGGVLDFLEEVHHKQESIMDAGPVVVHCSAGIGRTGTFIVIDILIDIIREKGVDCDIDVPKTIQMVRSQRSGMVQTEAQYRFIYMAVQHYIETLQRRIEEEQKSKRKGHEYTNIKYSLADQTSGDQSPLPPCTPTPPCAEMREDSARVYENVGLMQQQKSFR
The assay is described as follows: Degradation activity on SHP2 protein in NCI-H358 cells (Western blot, DC50). Also on record: endogenous in cells. In kind it is cell-based. The conditions noted are these: read-out: Degradation activity for differenct cell lines NCI-H358 (DC50). How it is done:
(1) MV-411 cells were cultured in the cell culture medium, and then well-growing cells were selected and inoculated in a 12-well plate, with 1 mL/well and 1×10^6 cells/well. The plate was incubated overnight in a 5% CO2 cell incubator at 37° C.
(2) 10 mM storage solution of each drug was prepared using dimethylsulfoxide (DMSO). The stock solution was diluted gradually with DMSO before use, and then 1 μL of the compound solution was added to the cell culture well (to ensure that the DMSO concentration in the culture system was […]), so that the final drug concentration is 100 nM, 10 nM, 3 nM, 1 nM, 0.3 nM, and 0.1 nM. Two wells were set for each concentration. The plate was gently shaken and mixed. Additionally, negative control wells (containing an equal amount of DMSO) and positive control wells were included.
(3) After 24 hours of cultivation, the cells were lysed using RIPA cell lysate, and the proteins were extracted. The protein concentration was measured using a BCA assay kit. 5× concentrated protein buffer was loaded, heated at 100° C. for 5 min, and then the sample was stored at −20° C.
(4) For each well, 30 μg of protein was loaded to polyacrylamide gel for electrophoresis.
(5) The protein was transferred from polyacrylamide gel to PVDF membrane, and sealed at room temperature with 5% skimmed milk for 1 h, which was then incubated with the primary antibodies (Anti-SHP2 rabbit mAb and Anti-GAPDH rabbit mAb) at 4° C. overnight. The membrane was washed three times with TBST solution, 10 minutes for each time. After that, the membrane was incubated with the secondary antibodies (horseradish peroxidase labeled goat anti-rabbit IgG) at room temperature for 2 h, and then washed three times with TBST solution, 10 minutes for each time, followed by exposure.
(6) The images were analyzed with Image J grayscale, and the degradation ratio of protein bands in the test group was calculated, based on the negative control group (DMSO) (100%).
(7) Using the Dose-response-inhibition equation in the data processing software GraphPad Prism 8, the DC50 value was obtained (which represents the drug concentration corresponding to 50% degradation of the target protein).
Using similar methods and different cell lines, the degradation activity of the compound according to the present invention on SHP2 protein of different cell lines was tested under suitable culture conditions.

The target in assay [2] is T1, SHP2 protein. The assay is described as follows: Degradation activity on SHP2 protein in MIA Paca-2 cells (Western blot, DC50). In kind it is cell-based. More on the design: endogenous in cells; host or cells: MIA Paca-2 cells. Conditions: read-out: Degradation activity for differenct cell lines MIA Paca-2 (DC50). In outline: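 DC50 is the concentration degrading 50% of SHP2 relative to DMSO control. It was derived by fitting Western blot band densitometry (anti-SHP2, GAPDH reference) from cells exposed 24 h to 0.1–100 nM compound in 0.1% DMSO.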

Where a name gives a salt, the structure may show the parent alone.

Turning to `CC1(N)CCN(c2cnc(Sc3cccc(NC(=O)c4ccc(-c5ccc(N6CCN(c7ccc(C(=O)NCc8ccc9c(c8)CN(C8CCC(=O)NC8=O)C9=O)nc7)CC6)cc5)cc4)c3)cn2)CC1` (stereo not drawn) [Compound 343, 5-(4-(4′-((3-(([…])thio)phenyl)carbamoyl)-[1,1′-diphenyl]-4-yl)piperazin-1-yl)-N-((2-(2,6-dioxopiperidin-3-yl)-1-oxoisoindolin-5-yl)methyl)pyridinecarboxamide], the 50% degradation concentration (DC50) at SHP2 protein [1] was over 1000 nM; at SHP2 protein [2] it was under 100 nM.
Taken in the same sequence, the figures for `CC1(N)CCN(c2cnc(Sc3cccc(NC(=O)c4ccc5c(c4)CC(N4CCN(c6ccc(C(=O)NCc7ccc8c(c7)CN(C7CCC(=O)NC7=O)C8=O)nn6)CC4)C5)c3)cn2)CC1` (stereo not drawn) [Compound 344, […]] were over 1000 nM and under 100 nM.
Taken in the same sequence, the figures for `CC1(N)CCN(c2cnc(Sc3cccc(NC(=O)c4csc(N5CCC(N6CC=C(c7ccc(C(=O)NCc8ccc9c(c8)CN(C8CCC(=O)NC8=O)C9=O)nn7)CC6)CC5)n4)c3)cn2)CC1` (stereo not drawn) [Compound 357] were under 100 nM and under 100 nM.
With `CC1(N)CCN(c2cnc(Sc3cccc(NC(=O)c4ccc(N5CCC(N6CC=C(c7ncc(C(=O)NCc8ccc9c(c8)CN(C8CCC(=O)NC8=O)C9=O)cc7Cl)CC6)CC5)cc4)c3)cn2)CC1` (stereo not drawn) [Compound 365], the 50% degradation concentration (DC50) was under 100 nM on SHP2 protein [1] and 100 to 1000 nM at SHP2 protein [2].
Taken in the same sequence, the figures for `CC1(N)CCN(c2cnc(Sc3cccc(NC(=O)c4ccc(N5CCC(N6CC=C(c7ncc(C(=O)NCc8ccc9c(c8)CN(C8CCC(=O)NC8=O)C9=O)cn7)CC6)CC5)cc4)c3)cn2)CC1` (stereo not drawn) [Compound 370] were under 100 nM and 100 to 1000 nM.
Taken in the same sequence, the figures for `CC1(N)CCN(c2cnc(Sc3cccc(NC(=O)c4ccc(N5CCC(N6CC=C(c7cnc(C(=O)NCc8ccc9c(c8)CN(C8CCC(=O)NC8=O)C9=O)cn7)CC6)CC5)cc4)c3)cn2)CC1` (stereo not drawn) [Compound 371] were under 100 nM and 100 to 1000 nM.
For `NC1(CO)CCN(c2cnc(Sc3cccc(NC(=O)c4ccc(N5CCC(N6CC=C(c7ccc(C(=O)NCc8ccc9c(c8)CN(C8CCC(=O)NC8=O)C9=O)nn7)CC6)CC5)cc4)c3)cn2)CC1` (stereo not drawn) [Compound 375], in that order: under 100 nM and over 1000 nM.
Regarding `COc1cc(C2=CCN(C3CCN(c4ccc(C(=O)Nc5cccc(Sc6cnc(N7CCC(C)(N)CC7)cn6)c5)cc4)CC3)CC2)ccc1C(=O)NCc1ccc2c(c1)CN(C1CCC(=O)NC1=O)C2=O` (stereo not drawn) [Compound 377], the DC50 on SHP2 protein [1] and at SHP2 protein [2] was under 100 nM in each case.
As to `CC1(N)CCN(c2cnc(Sc3cccc(NC(=O)c4ccc(N5CCC(N6CCN(c7ccc(C(=O)NCc8ccc9c(c8)CN(C8CCC(=O)NC8=O)C9=O)nc7)CC6)CC5)cc4)c3)cn2)CC1` (stereo not drawn) [Compound 395], the DC50 at SHP2 protein [1] and at SHP2 protein [2] was under 100 nM each time.
Turning to `CC1(N)CCN(c2cnc(Sc3cccc(NC(=O)c4ccc(N5CCC(N6CCN(c7ccc(C(=O)NCc8ccc9c(c8)CN(C8CCC(=O)NC8=O)C9=O)nc7)CC6)CC5)c(F)c4)c3)cn2)CC1` (stereo not drawn) [Compound 396], the DC50 at SHP2 protein [1] and on SHP2 protein [2] was under 100 nM in each case.
As for `CC1(N)CCN(c2cnc(Sc3cccc(NC(=O)c4ccc(N5CCC(N6CCN(c7ccc(C(=O)NCc8ccc9c(c8)CN(C8CCC(=O)NC8=O)C9=O)nn7)CC6)CC5)c(F)c4)c3)cn2)CC1` (stereo not drawn) [Compound 397], the DC50 on SHP2 protein [1] and on SHP2 protein [2] was under 100 nM in each case.
`CC1(N)CCN(c2cnc(Sc3cccc(NC(=O)c4ccc(N5CCC(N6CC=C(c7ccc(C(=O)NCc8ccc9c(c8)CN(C8CCC(=O)NC8=O)C9=O)nc7Cl)CC6)CC5)cc4)c3)cn2)CC1` (stereo not drawn) [Compound 398]: the DC50 on SHP2 protein [1] and at SHP2 protein [2] was under 100 nM in each case.
